Peptide text beside a SMILES is read from it.
Target: S1-ACE2 complex (Severe acute respiratory syndrome coronavirus 2, UniProt P0DTC2)
Format: binding, human (ACE2); SARS-CoV-2 (S1)
Details: 5 μM peptide; preincubation 3 to 60 min

SMILES: CC(C)C[C@H](NC(=O)[C@H](CC(=O)O)NC(=O)[C@H](CCC(=O)O)NC(=O)[C@H](C)NC(=O)[C@H](CCC(=O)O)NC(=O)[C@H](Cc1c[nH]cn1)NC(=O)[C@H](CC(N)=O)NC(=O)[C@H](Cc1ccccc1)NC(=O)[C@H](CCCCN)NC(=O)[C@H](CC(=O)O)NC(=O)[C@H](CC(C)C)NC(=O)[C@H](Cc1ccccc1)NC(=O)[C@@H](NC(=O)[C@H](CCCCN)NC(=O)[C@H](C)NC(=O)[C@@H](N)CCC(N)=O)[C@@H](C)O)C(=O)N[C@@H](Cc1ccccc1)C(=O)N[C@@H](Cc1ccc(O)cc1)C(=O)N[C@@H](CCC(N)=O)C(N)=O (H-QAKTFLDKFNHEAEDLFYQ-NH2)
- half-life of preincubation-time effect on koff^rel: 14 min

— PMC8634746 (International Journal of Peptide Research and Therapeutics, 2021)
